PubChem BioAssay AID1259408 (Genetic Toxicology Data Bank (GENE-TOX), 2018)
Active and inactive are the calls of the source. How the calls were made is not given here.

Test system: GENE-TOX genotoxicity assays, various organisms and cells
Experiment: GENE-TOX mutagenicity studies
Conditions: for call: Assay Type: In vivo carcinogenicity studies
[1] = Species/Cell Type: Drosophila melanogaster, Assay Type: Sex-linked recessive lethal gene mutation, Assay Code: SRLT, Evaluation Type: Evaluation A (Pre-1980)
[2] = Species/Cell Type: Nonhuman, Assay Code: CCGT, Evaluation Type: Evaluation A (Pre-1980)
[3] = Species/Cell Type: Saccharomyces cerevisiae, Assay Type: Reverse gene mutation, Assay Code: YER+*, Activation: With metabolic activation, Evaluation Type: Evaluation A (Pre-1980)
[4] = Species/Cell Type: Drosophila melanogaster, Assay Type: Sex-linked recessive lethal gene mutation, Assay Code: SRL+, Evaluation Type: Evaluation A (Pre-1980)
[5] = Species/Cell Type: Glycine max (soybean), Assay Type: Gene mutation, Assay Code: GLM+, Evaluation Type: Evaluation A (Pre-1980)
[6] = Species/Cell Type: Mouse lymphoma (L5178Y) cells, Assay Type: Forward gene mutation at the thymidine kinase (TK) locus, chromosome aberrations, Assay Code: L51+, Evaluation Type: Evaluation A (Pre-1980)
[7] = Species/Cell Type: Mouse, Sex: Male, Assay Type: Sperm morphology, Assay Code: SPI-, Evaluation Type: Evaluation A (Pre-1980)
[8] = Species/Cell Type: Saccharomyces cerevisiae, Assay Type: Forward gene mutation, Assay Code: YEF+, Evaluation Type: Evaluation A (Pre-1980)
[9] = Species/Cell Type: Saccharomyces cerevisiae, Assay Type: Mitotic recombination or gene conversion, Assay Code: YEC+, Evaluation Type: Evaluation A (Pre-1980)
[10] = Species/Cell Type: Salmonella typhimurium (one or more of the five standard strains: TA98, TA100, TA1535, TA1537, and TA1538), Assay Type: Histidine reverse gene mutation, Ames assay, Assay Code: SAL+, Evaluation Type: Evaluation A (Pre-1980)
[11] = Species/Cell Type: Escherichia coli polA (W3119 vs P3478), Assay Type: Rec-assay, DNA effects (bacterial DNA repair), Assay Code: RE1+, Evaluation Type: Evaluation A (Pre-1980)
[12] = Species/Cell Type: Saccharomyces cerevisiae, Assay Type: Mitotic recombination or gene conversion, Assay Code: YEH+, Evaluation Type: Evaluation A (Pre-1980)
[13] = Species/Cell Type: Salmonella typhimurium, Assay Type: Forward and reverse gene mutation, host-mediated assay, Assay Code: HMA+, Evaluation Type: Evaluation A (Pre-1980)

COc1cc(O)c2c(=O)c(O)c(-c3ccc(O)c(O)c3)oc2c1
mutagenic call (Species/Cell Type: Mammalian polychromatic erythrocytes, Assay Type: Micronucleus test, chromosome aberrations, Assay Code: MNTT, Evaluation Type: Evaluation B (Post-1980)): no conclusion

CC1CCCC(C)N1N=O (stereo not drawn)
mutagenic call (Species/Cell Type: Drosophila melanogaster, Assay Type: Aneuploidy, partial sex chromosome loss, chromosome aberrations, Assay Code: DAPT, Evaluation Type: Evaluation A (Pre-1980)): no conclusion
mutagenic call (Species/Cell Type: Drosophila melanogaster, Assay Type: Aneuploidy, whole sex chromosome loss, chromosome aberrations, Assay Code: DACT, Evaluation Type: Evaluation A (Pre-1980)): no conclusion
mutagenic call [1]: no conclusion
call [2]: no conclusion
mutagenic call (Species/Cell Type: Saccharomyces cerevisiae, Assay Type: Forward gene mutation, Assay Code: YEF-*, Activation: With metabolic activation, Evaluation Type: Evaluation A (Pre-1980)): inactive; negative
mutagenic call [3]: active; positive

[N-]=[N+]=[N-]
mutagenic call (Species/Cell Type: Arabidopsis species, Assay Type: Gene mutation, Assay Code: ARMT, Evaluation Type: Evaluation A (Pre-1980)): no conclusion
mutagenic call [4]: active; positive
mutagenic call (Species/Cell Type: Escherichia coli WP2, Assay Type: Tryptophan reverse gene mutation, Assay Code: WP2T, Evaluation Type: Evaluation A (Pre-1980)): no conclusion
mutagenic call (Species/Cell Type: Escherichia coli WP2 UVRA, Assay Type: Tryptophan reverse gene mutation, Assay Code: WPU-, Evaluation Type: Evaluation A (Pre-1980)): inactive; negative
mutagenic call [5]: active; positive
mutagenic call (Species/Cell Type: Hordeum vulgare (barley), Assay Type: Gene mutation, Assay Code: HOM+, Evaluation Type: Evaluation A (Pre-1980)): active; positive
mutagenic call (Species/Cell Type: Human diploid fibroblasts, Assay Type: Unscheduled DNA synthesis (UDS) in vitro, DNA effects, Assay Code: UDH-, Evaluation Type: Evaluation A (Pre-1980)): inactive; negative
mutagenic call (Species/Cell Type: Human lymphocytes or leukocytes, Assay Type: Chromosome aberrations in vitro, Assay Code: CY7-, Evaluation Type: Evaluation A (Pre-1980)): inactive; negative
mutagenic call (Species/Cell Type: Human lymphocytes, Assay Type: Sister-chromatid exchange (SCE) in vitro, Assay Code: SCL+, Evaluation Type: Evaluation B (Post-1980)): active; positive
mutagenic call (Species/Cell Type: Human, Assay Type: Sister-chromatid exchange (SCE) in vitro, Assay Code: SC1+, Evaluation Type: Evaluation B (Post-1980)): active; positive
mutagenic call [6]: active; positive
mutagenic call [7]: inactive; negative
call [2]: no conclusion
mutagenic call [8]: active; positive
mutagenic call [9]: active; positive
mutagenic call [3]: active; positive
mutagenic call [10]: active; positive
mutagenic call (Species/Cell Type: Tradescantia species, Assay Type: Chromosome aberrations, Assay Code: TRC+D, Dose Response: With dose response, Evaluation Type: Evaluation A (Pre-1980)): active; positive
mutagenic call (Species/Cell Type: Tradescantia species, Assay Type: Gene mutation, Assay Code: TRM+D, Dose Response: With dose response, Evaluation Type: Evaluation A (Pre-1980)): active; positive
mutagenic call (Species/Cell Type: Zea mays (corn), Assay Type: Gene mutation, Assay Code: ZEM+D, Dose Response: With dose response, Evaluation Type: Evaluation A (Pre-1980)): active; positive

O=c1ccn([C@H]2C[C@H](O)[C@@H](CO)O2)c(=O)[nH]1
mutagenic call [1]: no conclusion

COC1=C2C[C@@H](C)C[C@H](OC)[C@H](O)[C@@H](C)/C=C(\C)[C@H](OC(N)=O)[C@@H](OC)/C=C\C=C(/C)C(=O)NC(=CC1=O)C2=O
mutagenic call (Species/Cell Type: Fischer rat embryo (RLV/1706) cells, Assay Type: Cell transformation, viral enhanced, Assay Code: CTR-, Evaluation Type: Evaluation A (Pre-1980)): inactive; negative

Cn1c([N+](=O)[O-])cnc1-c1nc2ccccc2n1CCCN1CCOCC1
mutagenic call [1]: no conclusion
mutagenic call (Species/Cell Type: Saccharomyces cerevisiae, Assay Type: Mitotic recombination or gene conversion, Assay Code: YEC-, Evaluation Type: Evaluation A (Pre-1980)): inactive; negative

O=C1CCO1
mutagenic call (Species/Cell Type: Allium cepa, Assay Type: Chromosome aberrations, Assay Code: ALC+, Evaluation Type: Evaluation A (Pre-1980)): active; positive
mutagenic call (Species/Cell Type: Chinese hamster ovary (CHO) cells, Assay Type: Forward gene mutation at the HPRT locus, Assay Code: CHO+, Evaluation Type: Evaluation B (Post-1980)): active; positive
mutagenic call [4]: active; positive
mutagenic call (Species/Cell Type: Drosophila melanogaster, Sex: Male, Assay Type: Heritable translocation test, chromosome aberrations, Assay Code: DHT+, Evaluation Type: Evaluation A (Pre-1980)): active; positive
mutagenic call [11]: active; positive
mutagenic call (Species/Cell Type: Human diploid fibroblasts, Assay Type: Unscheduled DNA synthesis (UDS) in vitro, DNA effects, Assay Code: UDH+, Evaluation Type: Evaluation A (Pre-1980)): active; positive
mutagenic call (Species/Cell Type: Mammalian polychromatic erythrocytes, Assay Type: Micronucleus test, chromosome aberrations, Assay Code: MNTT, Evaluation Type: Evaluation A (Pre-1980)): no conclusion
mutagenic call [6]: active; positive
mutagenic call [7]: inactive; negative
mutagenic call (Species/Cell Type: Neurospora crassa, Assay Type: Forward gene mutation, Assay Code: NEF+, Evaluation Type: Evaluation A (Pre-1980)): active; positive
mutagenic call (Species/Cell Type: Neurospora crassa, Assay Type: Reverse gene mutation, Assay Code: NER+, Evaluation Type: Evaluation A (Pre-1980)): active; positive
call (Species/Cell Type: Nonhuman, Assay Code: CCG+, Evaluation Type: Evaluation A (Pre-1980)): active; positive
mutagenic call (Species/Cell Type: Nonhuman, Assay Type: Sister-chromatid exchange (SCE) in vitro, Assay Code: SC2+D, Dose Response: With dose response, Evaluation Type: Evaluation A (Pre-1980)): active; positive
mutagenic call [9]: active; positive
mutagenic call [12]: active; positive
mutagenic call (Species/Cell Type: Saccharomyces cerevisiae, Assay Type: Reverse gene mutation, Assay Code: YER+, Evaluation Type: Evaluation A (Pre-1980)): active; positive
mutagenic call [10]: active; positive
mutagenic call [13]: active; positive
mutagenic call (Species/Cell Type: Syrian hamster embryo (SA7/SHE) cells, Assay Type: Cell transformation, viral enhanced, Assay Code: CT7+, Evaluation Type: Evaluation A (Pre-1980)): active; positive
mutagenic call (Species/Cell Type: Syrian hamster embryo (SHE) cells, Assay Type: Cell transformation, focus assay, Assay Code: CTF+, Evaluation Type: Evaluation A (Pre-1980)): active; positive
mutagenic call (Species/Cell Type: Vicia faba, Assay Type: Chromosome aberrations, Assay Code: VIC+, Evaluation Type: Evaluation A (Pre-1980)): active; positive

COC(=O)Nc1nc2ccc(C(=O)c3ccccc3)cc2[nH]1
mutagenic call (Species/Cell Type: Salmonella typhimurium, Assay Type: Forward and reverse gene mutation, body fluid assay, Assay Code: BFU+, Evaluation Type: Evaluation A (Pre-1980)): active; positive
mutagenic call [13]: active; positive

C[CH2][Hg][S]c1ccc(OS(=O)O)cc1
mutagenic call (Species/Cell Type: Saccharomyces cerevisiae, Assay Type: Aneuploidy, chromosome aberrations, Assay Code: YEN+, Evaluation Type: Evaluation A (Pre-1980)): active; positive

CCS(=O)(=O)OC
mutagenic call [5]: active; positive
mutagenic call (Species/Cell Type: Hordeum vulgare (barley), Assay Type: Chromosome aberrations, Assay Code: HOC+, Evaluation Type: Evaluation A (Pre-1980)): active; positive
mutagenic call (Species/Cell Type: Hordeum vulgare (barley), Assay Type: Gene mutation, Assay Code: HOM+D, Dose Response: With dose response, Evaluation Type: Evaluation A (Pre-1980)): active; positive
mutagenic call (Species/Cell Type: Rabbit, Sex: Male, Assay Type: Sperm morphology, Assay Code: SPRT, Evaluation Type: Evaluation A (Pre-1980)): no conclusion

O=[N+]([O-])c1ccc(F)c([N+](=O)[O-])c1
mutagenic call [11]: active; positive
mutagenic call (Species/Cell Type: Nonhuman, Assay Type: Sister-chromatid exchange (SCE) in vitro, Assay Code: SC2-, Evaluation Type: Evaluation B (Post-1980)): inactive; negative
mutagenic call [8]: active; positive
mutagenic call [9]: active; positive
mutagenic call [12]: active; positive

Oc1c(Br)cc(Br)c2cccnc12
mutagenic call (Species/Cell Type: Salmonella typhimurium (one or more of the five standard strains: TA98, TA100, TA1535, TA1537, and TA1538), Assay Type: Histidine reverse gene mutation, Ames assay, Assay Code: SALT, Evaluation Type: Evaluation A (Pre-1980)): no conclusion

Cc1cc(O)c2c(c1)C(=O)C13C(=C2O)C(=O)C2C(O)C1C1C(O)C3C(=O)C3=C(O)c4c(O)cc(C)cc4C(=O)C321 (stereo not drawn)
mutagenic call (Species/Cell Type: Bacillus subtilis (H17 vs M45), Assay Type: Rec-assay, spot test, DNA effects (bacterial DNA repair), Assay Code: REW+, Evaluation Type: Evaluation A (Pre-1980)): active; positive

O=NN(CCCl)C(=O)NCCCO
mutagenic call [4]: active; positive
mutagenic call [9]: active; positive
